Holding throughout (test): In vitro radiolabeled competitive HLA binding assay
Test [1] addresses HLA A*02:01 (purified MHC class I) (Homo sapiens, UniProt P04439, D140Y/D185E/D98H/E176V/E277Q/G131W/G231S/I119V/I121R/I166T/I218V/L300P/L318F/N151K/N90K/P208A/P217A/Q86G/Q94H/R138H/R169H/T345S).
Test [2] concerns the target HLA B*08:01 (purified MHC class I) (Homo sapiens, UniProt P01889, A93T/A95T/D138N/E176V/E187T/K202T/Q94N/R180D/S35A/V36M/Y33D/Y91F).
Test [3] has as its target HLA A*26:01 (purified MHC class I) (Homo sapiens, UniProt P04439, A114D/A173T/A270S/D101N/D185E/E277Q/E87N/F33Y/G231S/I121R/I218V/K168Q/L180W/L300P/L318F/P208A/P217A/Q86R/Q94H/R138Q/S129P/T187R/T323A/T345S/V100A/V358M).
Test [4] deals with HLA B*07:02 (purified MHC class I) (Homo sapiens, UniProt P01889).
Test [5] deals with HLA B*40:01 (purified MHC class I) (Homo sapiens, UniProt P01889, A65T/A93T/A95T/D138N/D98Y/E176V/E69K/N87E/Q56L/Q94N/R180L/S121R/S35A/S48T/T167S/V36M/W171L/Y33H/Y91S).
For test [6], the target named is HLA B*40:02 (purified MHC class I) (Homo sapiens, UniProt P01889, A65T/A93T/A95T/D138N/D201E/D98Y/E176V/E204Q/E69K/K202T/N87E/Q56L/Q94N/R180L/S48T/Y33H/Y91S).

Residues, ends and D or L forms follow the SMILES beside them. No end group written: not given here.

Compound SLLAPGAKQNV returned an IC50 in test [1] of 513 nM.

The compound VLSDFKTWL returned an IC50 in test [1] of 305 nM.

On to `CC(C)C[C@H](NC(=O)[C@H](CCC(=O)O)NC(=O)[C@H](CC(=O)O)NC(=O)[C@H](CS)NC(=O)[C@H](CCCCN)NC(=O)[C@H](CCCCN)NC(=O)[C@H](CCCCN)NC(=O)[C@H](CO)NC(=O)[C@@H](N)Cc1c[nH]cn1)C(=O)O`, for which, in test [2], the half-maximal inhibitory concentration (IC50) turned out to be 764 nM. That is a sub-micromolar value.

Consider `CSCC[C@H](NC(=O)[C@H](CO)NC(=O)[C@H](CS)NC(=O)[C@H](CS)NC(=O)[C@@H](NC(=O)[C@@H](NC(=O)[C@@H](N)CC(=O)O)C(C)C)C(C)C)C(=O)N[C@@H](CO)C(=O)N[C@@H](Cc1ccc(O)cc1)C(=O)O` (H-DVVCCSMSY-OH), for which the IC50 in test [3] stood at 25 nM.

As for `CC[C@H](C)[C@H](N)C(=O)N1CCC[C@H]1C(=O)N[C@@H](Cc1ccccc1)C(=O)N[C@@H](Cc1ccc(O)cc1)C(=O)NCC(=O)N[C@@H](CCCCN)C(=O)N[C@@H](C)C(=O)N[C@H](C(=O)O)[C@@H](C)CC`, in test [4], the IC50 came out at 497 nM.

In turn, FLVGQLFTF had an IC50 in test [1] of 67 nM. That is a double-digit nanomolar value.

In test [1], RLWHYPCTV had an IC50 of 12 nM.

For GVDPNIRTGV, the IC50 in test [1] came out at 351 nM.

Compound GIDPNIRTGV registered an IC50 in test [1] of 722 nM.

On to LEDRDRSEL, for which the IC50 was 426 nM in test [5] and 4270 nM in test [6].

The compound `CC(C)C[C@H](NC(=O)[C@H](C)NC(=O)[C@H](CC(C)C)NC(=O)[C@@H](N)CC(C)C)C(=O)N[C@@H](CC(C)C)C(=O)N[C@@H](CO)C(=O)N[C@@H](CS)C(=O)N[C@@H](CC(C)C)C(=O)N[C@H](C(=O)N[C@H](C(=O)O)C(C)C)[C@@H](C)O` returned an IC50 in test [1] of 357 nM.

Regarding HPALVFDIT, the IC50 in test [4] was 160 nM.

The values are drawn from publication PMC3345099 (Journal of Immunology (Baltimore, Md. : 1950), 2012).
